Drawing on article PMC5663094, “A seven-gene cluster in Ruminiclostridium cellulolyticum is essential for signalization, uptake and catabolism of the degradation products of cellulose hydrolysis” (Biotechnology for Biofuels, 2017), this text covers Kd for four molecules.

One test has as its target T1, rCuaD (Ruminiclostridium cellulolyticum, UniProt B8I427).
T1 construct: gene Ccel_2115; mature protein (lipoprotein signal peptide removed, putative cleavage at amino acid 20), N-terminal His6, pET22b(+), E. coli BL21(DE3)
Briefly: isothermal titration calorimetry. The following applies: 20 °C, 150 mM NaCl, 25 mM HEPES, pH 7.0. In kind it is binding. An excerpt: isothermal titration calorimetry on rCuaD
Background: Isothermal titration calorimetry measures the heat released or taken up as one component is titrated into another.

Another test has as its target T2, rCuaA (Ruminiclostridium cellulolyticum, UniProt B8I424).
T2 construct: gene Ccel_2112; mature protein (lipoprotein signal peptide removed, putative cleavage at amino acid 22), N-terminal His6, pET22b(+), E. coli BL21(DE3)
The experiment in a line: isothermal titration calorimetry. The class given is binding. As to conditions: 20 °C, 150 mM NaCl, 25 mM HEPES, pH 7.0. The source says:
isothermal titration calorimetry on rCuaA

What is called Kd is a measure of binding affinity in units of concentration.

T2 sequence (B8I424 entry or part of it): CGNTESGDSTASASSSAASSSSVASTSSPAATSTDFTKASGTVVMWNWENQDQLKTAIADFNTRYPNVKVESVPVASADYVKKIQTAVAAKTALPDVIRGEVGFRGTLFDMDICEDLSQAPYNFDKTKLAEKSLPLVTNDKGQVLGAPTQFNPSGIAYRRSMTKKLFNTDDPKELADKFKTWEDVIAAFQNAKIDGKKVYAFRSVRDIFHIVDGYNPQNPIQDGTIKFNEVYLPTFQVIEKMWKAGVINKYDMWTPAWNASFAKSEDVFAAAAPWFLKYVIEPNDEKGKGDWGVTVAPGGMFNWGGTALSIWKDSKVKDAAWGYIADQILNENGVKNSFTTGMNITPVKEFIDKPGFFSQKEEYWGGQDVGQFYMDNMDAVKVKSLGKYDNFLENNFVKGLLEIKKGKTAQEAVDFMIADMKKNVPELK
T1 sequence (B8I427 entry or part of it): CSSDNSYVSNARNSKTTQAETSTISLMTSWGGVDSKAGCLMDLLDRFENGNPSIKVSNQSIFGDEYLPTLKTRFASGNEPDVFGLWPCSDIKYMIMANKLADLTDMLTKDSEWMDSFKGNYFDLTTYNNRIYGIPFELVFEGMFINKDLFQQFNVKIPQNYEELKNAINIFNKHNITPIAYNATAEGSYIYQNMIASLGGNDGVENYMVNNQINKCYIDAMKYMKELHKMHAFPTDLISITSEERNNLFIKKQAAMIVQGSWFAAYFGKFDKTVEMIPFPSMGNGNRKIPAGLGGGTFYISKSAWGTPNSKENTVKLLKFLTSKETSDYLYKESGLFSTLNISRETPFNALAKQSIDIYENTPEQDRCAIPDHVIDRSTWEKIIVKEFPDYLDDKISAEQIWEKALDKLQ

As for `OC[C@H]1O[C@@H](O[C@H]2[C@H](O)[C@@H](O)C(O)O[C@@H]2CO)[C@H](O)[C@@H](O)[C@@H]1O` (some centres unmarked) [G2, cellobiose], the values for the Kd at rCuaD and at rCuaA were 23 ± 3 nM and 240 ± 20 nM, respectively.
At rCuaA, `OC[C@H]1O[C@@H](O[C@H]2[C@H](O)[C@@H](O)[C@H](O[C@H]3[C@H](O)[C@@H](O)C(O)O[C@@H]3CO)O[C@@H]2CO)[C@H](O)[C@@H](O)[C@@H]1O` (some centres unmarked) [G3, cellotriose] showed a Kd of 405 ± 110 nM.
The same measure, in the same setting: the result for `OC[C@H]1O[C@@H](O[C@H]2[C@H](O)[C@@H](O)[C@H](O[C@H]3[C@H](O)[C@@H](O)[C@H](O[C@H]4[C@H](O)[C@@H](O)C(O)O[C@@H]4CO)O[C@@H]3CO)O[C@@H]2CO)[C@H](O)[C@@H](O)[C@@H]1O` (some centres unmarked) [G4, cellotetraose] reads 644 ± 58 nM; that for `OC[C@H]1O[C@@H](O[C@H]2[C@H](O)[C@@H](O)[C@H](O[C@H]3[C@H](O)[C@@H](O)[C@H](O[C@H]4[C@H](O)[C@@H](O)[C@H](O[C@H]5[C@H](O)[C@@H](O)C(O)O[C@@H]5CO)O[C@@H]4CO)O[C@@H]3CO)O[C@@H]2CO)[C@H](O)[C@@H](O)[C@@H]1O` (some centres unmarked) [G5, cellopentaose], 1860 ± 130 nM.
